Measurements published in US9290478B2, “Substituted quinoxalines as FGFR kinase inhibitors” (ASTEX THERAPEUTICS LTD, priority 2010, dated 2016).

Key:
[1] = target: T1, Ba/F3-FGFR3-transfected cells (Homo sapiens, UniProt P22607); assay: Ba/F3-FGFR3 (minus IL3 or plus IL3) cellular proliferation assay; type: cell-based; settings: minus IL3
T1 construct: BAF3-FGFR3 (MIN IL3) pIC50; other: minus IL3
Method: (§1) Ba/F3-FGFR3 (Minus IL3 or Plus IL3) (Cellular Proliferation Assay)
(§2) In a 384 well plate, 100 nI of compound dilution in DMSO was sprayed before adding 50 μl cell culture medium (phenol red free RPMI-1640, 10% FBS, 2 mM L-Glutamine and 50 μg/ml Gentamycin) containing 20000 cells per well of Ba/F3-FGFR3-transfected cells. Cells were put in an incubator at 37° C. and 5% CO2. After 24 hours, 10 μl of Alamar Blue solution (0.5 mM K3Fe(CN)6, 0.5 mM K4Fe(CN)6, 0.15 mM Resazurin and 100 mM Phosphate Buffer) was added to the wells, incubated for 4 hours at 37° C. and 5% CO2 before RFU's (Relative Fluorescence Units) (ex. 540 nm., em. 590 nm.) were measured in a fluororescence plate reader.
(§3) In this assay, the inhibitory effect of different compound concentrations (range 10 μM to 0.1 nM) was determined and used to calculate an IC50 (M) and pIC50 (−log IC50) value. As a counterscreen the same experiment was performed in the presence of 10 ng/ml murine IL3.

[2] = test system: Ba/F3-FGFR3-transfected cells; assay: as above; type: cell-based; settings: plus 10 ng/ml murine IL3 (counterscreen); for IC50: 24 h, read-out: BAF3-FGFR3 (PLUS IL3) pIC50 (converted)
Method: as §1, §2, §3

FGFR4 (h) = FGFR4 (h) (Homo sapiens, UniProt P22455); assay: FGFR4 (enzymatic assay), TR-FRET; type: biochemical; settings: 5 μM ATP; for IC50: read-out: FGFR4 pIC50 (converted)
Chain of FGFR4 (h) (P22455 22-802): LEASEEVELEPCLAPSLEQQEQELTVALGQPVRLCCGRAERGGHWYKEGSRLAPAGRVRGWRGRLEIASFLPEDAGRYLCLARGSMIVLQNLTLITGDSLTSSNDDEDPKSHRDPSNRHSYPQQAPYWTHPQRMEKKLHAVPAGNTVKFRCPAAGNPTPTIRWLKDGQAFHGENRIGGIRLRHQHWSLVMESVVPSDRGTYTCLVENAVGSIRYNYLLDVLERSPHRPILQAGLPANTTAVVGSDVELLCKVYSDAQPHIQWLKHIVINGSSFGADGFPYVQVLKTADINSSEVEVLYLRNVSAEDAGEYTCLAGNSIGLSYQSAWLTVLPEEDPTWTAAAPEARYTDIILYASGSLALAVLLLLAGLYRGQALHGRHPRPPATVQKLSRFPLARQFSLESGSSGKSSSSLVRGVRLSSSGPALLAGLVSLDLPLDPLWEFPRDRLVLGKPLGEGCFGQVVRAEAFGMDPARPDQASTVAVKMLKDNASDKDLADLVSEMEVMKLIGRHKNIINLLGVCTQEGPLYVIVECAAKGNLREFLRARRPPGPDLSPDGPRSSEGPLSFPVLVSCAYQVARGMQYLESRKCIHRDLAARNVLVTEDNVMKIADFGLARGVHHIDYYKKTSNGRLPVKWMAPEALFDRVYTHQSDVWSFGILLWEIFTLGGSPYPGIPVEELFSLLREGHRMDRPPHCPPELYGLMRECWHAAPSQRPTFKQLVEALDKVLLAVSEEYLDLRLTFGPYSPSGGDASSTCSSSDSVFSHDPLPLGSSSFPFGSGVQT
Method: (§4) In a final reaction volume of 30 μL, FGFR4 (h) (60 ng/ml) was incubated with 50 mM HEPES pH 7.5, 6 mM MnCl2, 1 mM DTT, 0.1 mM Na3VO4, 0.01% Triton-X-100, 500 nM Btn-Flt3 and 5 μM ATP in the presence of compound (1% DMSO final). After incubation for 60 minutes at room temperature the reaction was stopped with 2.27 nM EU-anti P-Tyr, 7 mM EDTA, 31.25 nM SA-XL-665 and 0.02% BSA which was present for 60 minutes at room temperature. Time-Resolved Fluorescence Resonance Energy Transfer (TR-FRET) signal (ex340 nm. Em 620 nm, em 655 nm) was measured afterwards and results are expressed in RFU (Relative Fluorescence Units). In this assay, the inhibitory effect of different compound concentrations (range 10 μM to 0.1 nM) was determined and used to calculate an IC50 (M) and pIC50 (−log IC50) value.

FGFR1 (h) = FGFR1 (h) (Homo sapiens, UniProt P11362); assay: FGFR1 (enzymatic assay), TR-FRET; type: biochemical; settings: 5 μM ATP; read-out: FGFR1 pIC50 (converted)
Chain of FGFR1 (h) (P11362 22-822): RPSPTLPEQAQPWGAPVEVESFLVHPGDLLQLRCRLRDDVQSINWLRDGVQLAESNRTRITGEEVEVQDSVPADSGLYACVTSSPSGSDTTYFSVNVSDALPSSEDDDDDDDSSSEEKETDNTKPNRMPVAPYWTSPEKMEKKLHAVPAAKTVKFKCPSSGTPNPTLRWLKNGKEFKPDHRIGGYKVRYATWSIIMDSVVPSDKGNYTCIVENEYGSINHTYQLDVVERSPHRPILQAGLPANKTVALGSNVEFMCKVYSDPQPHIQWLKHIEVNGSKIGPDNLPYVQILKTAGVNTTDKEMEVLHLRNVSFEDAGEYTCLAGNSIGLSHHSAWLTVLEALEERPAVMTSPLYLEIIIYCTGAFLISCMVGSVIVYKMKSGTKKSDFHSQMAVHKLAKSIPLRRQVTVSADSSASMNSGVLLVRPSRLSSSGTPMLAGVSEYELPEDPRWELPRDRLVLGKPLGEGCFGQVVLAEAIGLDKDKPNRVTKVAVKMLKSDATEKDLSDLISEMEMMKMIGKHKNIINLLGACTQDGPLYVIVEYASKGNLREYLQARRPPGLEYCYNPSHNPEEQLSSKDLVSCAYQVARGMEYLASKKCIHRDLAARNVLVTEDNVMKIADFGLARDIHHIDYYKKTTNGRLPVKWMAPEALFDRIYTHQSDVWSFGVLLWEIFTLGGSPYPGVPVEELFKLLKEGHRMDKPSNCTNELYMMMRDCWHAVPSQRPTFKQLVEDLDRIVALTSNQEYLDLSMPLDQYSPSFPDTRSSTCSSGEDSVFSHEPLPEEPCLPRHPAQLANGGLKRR
Method: as §4, with “FGFR1” for “FGFR4”, “(25” for “(60”

[3] = target: T2, Ba/F3-KDR-transfected cells (Homo sapiens, UniProt P35968); assay: Ba/F3-KDR (minus IL3 or plus IL3) cellular proliferation assay; type: cell-based; settings: minus IL3
T2 construct: BAF3-KDR (MIN IL3) pIC50; other: minus IL3
T2 sequence (P35968 whole entry, change not shown): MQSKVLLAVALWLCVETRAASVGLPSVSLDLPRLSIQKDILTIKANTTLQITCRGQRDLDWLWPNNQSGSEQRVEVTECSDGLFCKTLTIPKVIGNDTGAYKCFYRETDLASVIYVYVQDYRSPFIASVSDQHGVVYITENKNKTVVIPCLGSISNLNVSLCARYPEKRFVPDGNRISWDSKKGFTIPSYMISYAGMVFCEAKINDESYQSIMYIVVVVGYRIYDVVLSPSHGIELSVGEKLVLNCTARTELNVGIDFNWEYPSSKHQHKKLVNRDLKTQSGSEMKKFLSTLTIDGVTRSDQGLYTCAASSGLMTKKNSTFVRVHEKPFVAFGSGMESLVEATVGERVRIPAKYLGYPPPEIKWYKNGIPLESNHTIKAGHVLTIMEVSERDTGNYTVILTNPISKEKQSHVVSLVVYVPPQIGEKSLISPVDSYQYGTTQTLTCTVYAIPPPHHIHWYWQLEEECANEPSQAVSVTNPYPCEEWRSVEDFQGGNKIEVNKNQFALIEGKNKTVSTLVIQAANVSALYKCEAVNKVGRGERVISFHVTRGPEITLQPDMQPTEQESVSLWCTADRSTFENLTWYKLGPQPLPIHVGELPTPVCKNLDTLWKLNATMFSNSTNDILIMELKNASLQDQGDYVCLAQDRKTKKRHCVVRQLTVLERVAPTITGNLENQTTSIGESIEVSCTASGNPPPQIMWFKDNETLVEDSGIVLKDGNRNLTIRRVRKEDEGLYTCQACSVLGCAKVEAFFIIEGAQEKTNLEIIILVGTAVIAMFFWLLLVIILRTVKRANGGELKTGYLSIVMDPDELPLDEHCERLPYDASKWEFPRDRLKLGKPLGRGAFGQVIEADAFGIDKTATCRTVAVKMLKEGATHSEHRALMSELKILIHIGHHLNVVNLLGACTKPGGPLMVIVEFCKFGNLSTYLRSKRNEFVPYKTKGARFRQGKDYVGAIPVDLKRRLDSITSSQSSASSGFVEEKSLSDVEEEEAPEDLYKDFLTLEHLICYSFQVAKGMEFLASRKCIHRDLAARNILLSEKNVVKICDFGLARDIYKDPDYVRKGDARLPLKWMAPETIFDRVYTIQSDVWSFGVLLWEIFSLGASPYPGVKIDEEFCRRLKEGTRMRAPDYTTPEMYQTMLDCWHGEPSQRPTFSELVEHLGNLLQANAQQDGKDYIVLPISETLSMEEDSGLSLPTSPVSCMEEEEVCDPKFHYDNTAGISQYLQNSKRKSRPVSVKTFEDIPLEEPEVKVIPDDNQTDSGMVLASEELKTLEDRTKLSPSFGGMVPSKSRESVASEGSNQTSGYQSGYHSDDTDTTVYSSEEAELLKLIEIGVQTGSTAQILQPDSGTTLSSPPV
Method: (§5) Ba/F3-KDR (Minus IL3 or Plus IL3) (Cellular Proliferation Assay)
as §2, with “Ba/F3-KDR-transfected” for “Ba/F3-FGFR3-transfected”
as §3

[4] = test system: Ba/F3-KDR-transfected cells; assay: as above; type: cell-based; settings: plus 10 ng/ml murine IL3 (counterscreen); for IC50: 24 h, read-out: BAF3-KDR (PLUS IL3) pIC50 (converted)
Method: as §5
as §2, with “Ba/F3-KDR-transfected” for “Ba/F3-FGFR3-transfected”
as §3

[5] = target: T3, Ba/F3-FGFR1-transfected cells (Homo sapiens, UniProt P11362); assay: Ba/F3-FGFR1 (minus IL3 or plus IL3) cellular proliferation assay; type: cell-based; settings: minus IL3
T3 construct: BAF3-FGFR1 (MIN IL3) pIC50; other: minus IL3
T3 sequence (P11362 whole entry, change not shown): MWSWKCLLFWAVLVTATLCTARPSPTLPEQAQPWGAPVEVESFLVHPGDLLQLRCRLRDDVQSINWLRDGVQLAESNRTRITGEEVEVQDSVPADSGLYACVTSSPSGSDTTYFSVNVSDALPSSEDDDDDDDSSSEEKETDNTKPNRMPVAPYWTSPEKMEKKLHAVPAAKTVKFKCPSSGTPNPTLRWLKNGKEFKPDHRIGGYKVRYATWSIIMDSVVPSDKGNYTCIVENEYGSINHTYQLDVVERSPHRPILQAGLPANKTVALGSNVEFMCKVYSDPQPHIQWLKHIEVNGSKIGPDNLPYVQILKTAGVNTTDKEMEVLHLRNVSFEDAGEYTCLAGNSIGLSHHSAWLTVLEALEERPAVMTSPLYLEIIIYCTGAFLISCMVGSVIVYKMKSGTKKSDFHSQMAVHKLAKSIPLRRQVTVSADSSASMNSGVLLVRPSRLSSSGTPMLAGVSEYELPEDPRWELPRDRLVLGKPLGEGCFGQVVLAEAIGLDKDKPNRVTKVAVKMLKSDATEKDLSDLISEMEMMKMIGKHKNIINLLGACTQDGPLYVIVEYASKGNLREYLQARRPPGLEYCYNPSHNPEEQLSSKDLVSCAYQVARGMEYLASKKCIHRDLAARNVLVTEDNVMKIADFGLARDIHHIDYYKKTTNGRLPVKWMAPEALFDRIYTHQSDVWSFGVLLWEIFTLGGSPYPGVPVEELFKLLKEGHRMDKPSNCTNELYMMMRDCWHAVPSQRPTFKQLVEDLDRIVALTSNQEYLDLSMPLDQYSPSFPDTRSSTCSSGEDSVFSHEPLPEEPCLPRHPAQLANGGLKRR
Method: (§6) Ba/F3-FGFR1 (Minus IL3 or Plus IL3) (Cellular Proliferation Assay)
as §2, with “nl” for “nI”, “Ba/F3-FGFR1-transfected” for “Ba/F3-FGFR3-transfected”
(§7) In this assay, the inhibitory effect of different compound concentrations (range 10 μM to 0.1 nM) was determined and used to calculate an IC50 (M) and pIC50 (−log IC50) value.
(§8) As a counterscreen the same experiment was performed in the presence of 10 ng/ml murine IL3.

[6] = test system: Ba/F3-FGFR1-transfected cells; assay: as above; type: cell-based; settings: plus 10 ng/ml murine IL3 (counterscreen); for IC50: 24 h, read-out: BAF3-FGFR1 (PLUS IL3) pIC50 (converted)
Method: as §6
as §2, with “nl” for “nI”, “Ba/F3-FGFR1-transfected” for “Ba/F3-FGFR3-transfected”
as §7, §8

T1 sequence (P22607 whole entry, change not shown): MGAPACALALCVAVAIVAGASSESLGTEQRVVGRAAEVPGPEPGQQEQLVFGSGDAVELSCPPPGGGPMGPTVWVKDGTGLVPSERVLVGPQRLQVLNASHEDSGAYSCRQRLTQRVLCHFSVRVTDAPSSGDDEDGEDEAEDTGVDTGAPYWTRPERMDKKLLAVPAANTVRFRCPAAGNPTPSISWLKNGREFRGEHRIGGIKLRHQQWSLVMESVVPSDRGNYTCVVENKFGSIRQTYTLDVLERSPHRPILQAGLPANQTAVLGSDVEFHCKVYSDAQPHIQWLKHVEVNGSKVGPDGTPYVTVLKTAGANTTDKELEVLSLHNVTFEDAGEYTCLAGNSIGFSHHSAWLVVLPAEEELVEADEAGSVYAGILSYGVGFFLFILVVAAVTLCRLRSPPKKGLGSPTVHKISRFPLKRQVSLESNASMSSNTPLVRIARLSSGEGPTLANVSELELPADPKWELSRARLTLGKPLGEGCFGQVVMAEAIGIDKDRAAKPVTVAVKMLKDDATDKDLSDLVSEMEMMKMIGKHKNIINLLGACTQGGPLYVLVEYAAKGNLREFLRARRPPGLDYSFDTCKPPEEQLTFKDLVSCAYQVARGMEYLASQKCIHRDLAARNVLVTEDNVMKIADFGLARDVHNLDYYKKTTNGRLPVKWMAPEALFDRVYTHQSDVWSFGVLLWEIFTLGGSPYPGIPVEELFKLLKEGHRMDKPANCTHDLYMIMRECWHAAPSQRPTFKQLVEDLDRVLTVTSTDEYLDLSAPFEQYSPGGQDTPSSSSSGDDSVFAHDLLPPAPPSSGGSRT

BAF3-FGFR3 (MIN IL3) pIC50 [1]	FGFR4 pIC50 (FGFR4 (h))	IC50 (FGFR1 (h)) [nM]	BAF3-KDR (MIN IL3) pIC50 [3]	BAF3-FGFR1 (MIN IL3) pIC50 [5]	IC50 (FGFR4 (h)) [nM]	SMILES	BAF3-FGFR3 (PLUS IL3) pIC50 [2]	BAF3-KDR (PLUS IL3) pIC50 [4]	BAF3-FGFR1 (PLUS IL3) pIC50 [6]	IC50 [2] [nM]	IC50 [4] [nM]	IC50 [6] [nM]
<5	<6	776	<5	<5		CNCC(O)(c1cc(OC)cc(OC)c1)c1ccc2ncc(-c3cnn(C)c3)nc2c1.Cl (single isomer, unassigned) [Compound 38]	<5	<5	<5			
5.13		794	<5	<5	> 1000	COc1cc(OC)cc(C(CC(C)(O)CNC(C)C)c2ccc3ncc(-c4cnn(C)c4)nc3c2)c1.Cl (centres unmarked) [Compound 25]				> 10000	> 10000	> 10000
6.67		7.59	<5	6.93	145	COc1cc(OC)cc(C(CCNC(C)C)c2ccc3ncc(-c4cnn(C)c4)nc3c2)c1 (single isomer, unassigned) [Compound 19a]				> 10000	> 10000	> 10000
6.04		77.6	<5	5.86	447	COc1cc(OC)cc(C(CCN)c2ccc3ncc(-c4cnn(C)c4)nc3c2)c1.Cl (centres unmarked) [Compound 20]				> 10000	> 10000	> 10000
